Earlier results, collected in patent US20050079136A1, “Aerosol formulations of delta tetrahydrocannabinol” (priority 2001, published 2005).

Test system: children with cancer

For CCCCCc1cc(O)c2c(c1)OC(C)(C)[C@@H]1CC=C(C)C[C@@H]21 [Δ^8 THC, Δ^8 Tetrahydrocannabinol], the incidence of nausea is given as “greatly reduced” and the side effects is given as “no significant side effects”.
